Results published in ChEMBL document CHEMBL2163289, “The discovery of N-[5-(4-bromophenyl)-6-[2-[(5-bromo-2-pyrimidinyl)oxy]ethoxy]-4-pyrimidinyl]-N'-propylsulfamide (Macitentan), an orally active, potent dual endothelin receptor antagonist” (J Med Chem, 2012).
Each block holds one compound with its values, some of them ahead of it. Activity calls are given as the source filed them. The rule behind the calls is not given here.

Assays:
[1] = tested on: Rattus norvegicus; test: Antihypertensive activity in telemeterized hypertensive Dahl salt-sensitive rat assessed as reduction in mean arterial blood pressure at 3 mg/kg, po measured over 6 hrs; type: functional, Artery
[2] = Cmax in Wistar rat at 10 mg/kg, po; type: ADME, organism-based; parameters: dose 10 mg/kg, route oral; conditions: in vivo
[3] = tested on: Rattus norvegicus; test: Antihypertensive activity in telemeterized hypertensive Dahl salt-sensitive rat assessed as reduction in mean arterial blood pressure at 1 mg/kg, po administered QD for 5 days measured 48 hrs post last-dose; conditions: Artery
[4] = AUC (0 to infinity) in beagle dog at 1 mg/kg, iv; type: ADME, organism-based, Canis lupus familiaris; parameters: dose 1 mg/kg, route intravenous, time infinity; conditions: plasma
[5] = tested on: Rattus norvegicus; test: Effect on heart rate in telemeterized hypertensive Dahl salt-sensitive rat at 1 to 100 mg/kg, po
[6] = Oral bioavailability in Wistar rat at 10 mg/kg; type: ADME, organism-based; conditions: in vivo
[7] = Clearance in beagle dog at 1 mg/kg, iv; type: ADME, organism-based, Canis lupus familiaris; parameters: dose 1 mg/kg, route intravenous; conditions: in vivo
[8] = Cmax in beagle dog at 10 mg/kg, po; type: ADME, organism-based, Canis lupus familiaris; parameters: dose 10 mg/kg, route oral; conditions: in vivo
[9] = target: T1, Endothelin-1 receptor (Homo sapiens, UniProt P25101); test: Displacement of [I125]ET1 from recombinant ETA receptor expressed in CHO cells after 2 hrs by TopCount analysis; type: cell-based
T1 sequence (P25101 whole entry): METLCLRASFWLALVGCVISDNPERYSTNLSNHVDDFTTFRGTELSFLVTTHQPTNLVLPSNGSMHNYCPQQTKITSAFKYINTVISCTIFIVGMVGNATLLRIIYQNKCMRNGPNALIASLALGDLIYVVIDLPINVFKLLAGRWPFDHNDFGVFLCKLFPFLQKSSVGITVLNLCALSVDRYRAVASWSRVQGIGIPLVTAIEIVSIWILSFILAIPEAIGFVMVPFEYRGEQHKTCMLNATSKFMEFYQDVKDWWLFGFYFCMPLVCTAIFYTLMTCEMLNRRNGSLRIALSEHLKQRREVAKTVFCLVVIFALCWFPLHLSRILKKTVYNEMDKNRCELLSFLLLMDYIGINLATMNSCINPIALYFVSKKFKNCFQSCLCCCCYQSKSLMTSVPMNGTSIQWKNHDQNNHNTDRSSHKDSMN

[10] = AUC (0 to infinity) in Wistar rat at 1 mg/kg, iv; type: ADME, organism-based; parameters: time infinity, dose 1 mg/kg, route intravenous; conditions: plasma
[11] = Clearance in Wistar rat at 1 mg/kg, iv; type: ADME, organism-based; parameters: dose 1 mg/kg, route intravenous; conditions: in vivo
[12] = AUC (0 to infinity) in Wistar rat at 10 mg/kg, po; type: ADME, organism-based; parameters: time infinity, dose 10 mg/kg, route oral; conditions: plasma
[13] = Tmax in beagle dog at 10 mg/kg, po; type: ADME, organism-based, Canis lupus familiaris; parameters: dose 10 mg/kg, route oral; conditions: in vivo
[14] = Oral bioavailability in beagle dog at 10 mg/kg; type: ADME, organism-based, Canis lupus familiaris; conditions: in vivo
[15] = species: Canis familiaris; test: Drug metabolism in beagle dog assessed as N-[5-(4-Bromophenyl)-6-[2-[(5-bromo-2-pyrimidinyl)oxy]ethoxy]-4-pyrimidinyl]-sulfamide formation; type: ADME, organism-based, Canis lupus familiaris; conditions: in vivo
[16] = species: Rattus norvegicus; test: Drug metabolism in Wistar rat assessed as N-[5-(4-Bromophenyl)-6-[2-[(5-bromo-2-pyrimidinyl)oxy]ethoxy]-4-pyrimidinyl]-sulfamide formation; type: ADME, organism-based; conditions: in vivo
[17] = Volume of distribution at steady state in Wistar rat at 1 mg/kg, iv; type: ADME, organism-based; parameters: dose 1 mg/kg, route intravenous; conditions: in vivo, read-out: Vdss
[18] = AUC (0 to infinity) in beagle dog at 10 mg/kg, po; type: ADME, organism-based, Canis lupus familiaris; parameters: time infinity, dose 10 mg/kg, route oral; conditions: plasma
[19] = Half life in beagle dog at 1 mg/kg, iv; type: ADME, organism-based, Canis lupus familiaris; parameters: dose 1 mg/kg, route intravenous; conditions: in vivo
[20] = tested on: Rattus norvegicus; test: Antihypertensive activity in telemeterized hypertensive Dahl salt-sensitive rat assessed as reduction in mean arterial blood pressure at 1 mg/kg, po administered QD for 5 days; type: functional, Artery
[21] = tested on: Rattus norvegicus; test: Toxicity in telemeterized hypertensive Dahl salt-sensitive rat assessed as tachyphylaxis at 1 mg/kg, po administered QD for 5 days; type: organism-based; parameters: dose 1 mg/kg, route oral; conditions: in vivo, 120 h
[22] = Volume of distribution at steady state in beagle dog at 1 mg/kg, iv; type: ADME, organism-based, Canis lupus familiaris; parameters: dose 1 mg/kg, route intravenous; conditions: in vivo, read-out: Vdss
[23] = Half life in Wistar rat at 1 mg/kg, iv; type: ADME, organism-based; parameters: dose 1 mg/kg, route intravenous; conditions: in vivo
[24] = tested on: Rattus norvegicus; test: Antihypertensive activity in po dosed telemeterized hypertensive Dahl salt-sensitive rat assessed as reduction in mean arterial blood pressure; conditions: Artery
[25] = species: Rattus norvegicus; test: Toxicity in rat assessed as inhibition of bile salt transport; type: organism-based; conditions: in vivo
[26] = tested on: Rattus norvegicus; test: Antihypertensive activity in telemeterized hypertensive Dahl salt-sensitive rat assessed as duration of mean arterial blood pressure lowering action at 3 mg/kg, po; type: functional, Artery
[27] = Tmax in Wistar rat at 10 mg/kg, po; type: ADME, organism-based; parameters: dose 10 mg/kg, route oral; conditions: in vivo
[28] = tested on: Rattus norvegicus; test: Antihypertensive activity in telemeterized hypertensive Dahl salt-sensitive rat assessed as reduction in mean arterial blood pressure at 100 mg/kg, po measured over 6 hrs; type: functional, Artery
[29] = tested on: Rattus norvegicus; test: Effect on heart rate in telemeterized hypertensive Dahl salt-sensitive rat at 3 mg/kg, po
[30] = tested on: Rattus norvegicus; test: Antihypertensive activity in telemeterized hypertensive Dahl salt-sensitive rat assessed as duration of mean arterial blood pressure lowering action at 100 mg/kg, po; type: functional, Artery

Cmax [2]: 1670 ng/mL
AUC(0-inf) [4]: 3170 ng·h/mL
bioavailability [6]: 69%
clearance [7]: 5.4 mL/min/kg
Cmax [8]: 4590 ng/mL
IC50 [9]: 0.5 nM
AUC(0-inf) [10]: 2680 ng·h/mL
clearance [11]: 6.7 mL/min/kg
AUC(0-inf) [12]: 18500 ng·h/mL
Tmax [13]: 2 h
bioavailability [14]: 87%
Drug metabolism [15]: Active
Drug metabolism [16]: Active
Vd [17]: 1.8 L/kg
AUC(0-inf) [18]: 27500 ng·h/mL
half-life [19]: 4.1 h
Vd [22]: 0.9 L/kg
half-life [23]: 5.1 h
Tmax [27]: 6 h
SMILES: CCCNS(=O)(=O)Nc1ncnc(OCCOc2ncc(Br)cn2)c1-c1ccc(Br)cc1
Fall in mean arterial blood pressure [1]: 25 mmHg
Activity [3]: Active
Activity [5]: inactive
MPE [20]: 20 mmHg
Activity [21]: Non-toxic
Activity [24]: Dose-dependent effect
Activity [25]: Non-toxic
Time [26]: 60 h

SMILES: COc1ccccc1Oc1c(NS(=O)(=O)c2ccc(C(C)(C)C)cc2)nc(-c2ncccn2)nc1OCCO [BOSENTAN]
Fall in mean arterial blood pressure [1]: 7 mmHg
MPE [28]: 30 mmHg
Activity [29]: inactive
Time [30]: 72 h
Time [26]: 15 h
